From patent US9351965B2, “Indazole derivatives useful as ERK inhibitors” (Merck Sharp & Dohme Corp., priority 2010, dated 2016)

Target: fully phosphorylated, active Mouse ERK2 protein (Mus musculus (Mouse), UniProt P63085)
Assay: Active ERK2 (aERK) IMAP assay
Type: biochemical
Conditions: IMAP fluorescence polarization; 30 μM ATP; 30 minute pre-incubation
Method: 14 μl of kinase buffer (10 mM Tris.HCl pH 7.2, 10 mM MgCl2, 0.01% Tween-20, 1 mM DTT) containing 0.4 ng unphosphorylated Mouse ERK2 protein was added to each well of a black 384-well assay plate. […] DMSO concentration during initial incubation is 6.7%. […] DMSO concentration during ERK activation was 4%. After one hour, reactions were terminated by addition of 60 μl IMAP detections beads in binding buffer (Molecular Devices). Binding was allowed to equilibrate for 30 minutes before reading the plate on an LJL Analyst Fluorescence Polarization plate reader.
Active ERK2 (aERK) Assay:
Activated ERK2 activity was also determined in the IMAP assay format using the procedure outlined above. […] Reactions proceeded for 30 minutes before termination by addition of 60 μl IMAP detection beads in binding buffer. Plates were read as above after 30 minute binding equilibration.

Sequence of fully phosphorylated, active Mouse ERK2 protein (P63085 whole entry): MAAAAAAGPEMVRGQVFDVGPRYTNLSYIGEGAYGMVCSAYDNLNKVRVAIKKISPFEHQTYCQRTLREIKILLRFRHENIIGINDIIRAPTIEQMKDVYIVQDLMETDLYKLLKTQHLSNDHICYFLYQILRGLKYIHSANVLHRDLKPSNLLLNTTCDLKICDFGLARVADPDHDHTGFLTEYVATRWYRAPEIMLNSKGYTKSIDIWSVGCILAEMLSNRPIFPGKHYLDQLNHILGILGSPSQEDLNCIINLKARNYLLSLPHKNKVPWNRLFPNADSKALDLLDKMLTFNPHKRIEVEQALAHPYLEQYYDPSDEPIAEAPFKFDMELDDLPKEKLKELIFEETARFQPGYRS

SMILES	IC50
Cc1cc(-c2n[nH]c3ccc(C(=O)N[C@@H]4CCC[C@](O)(CN5C(=O)Cc6ccccc65)C4)cc23)ccn1 (relative stereo) [compound 88, N-[trans-3-[(2,3-dihydro-2-oxo-1H-indol-1-yl)methyl]-3-hydroxycyclohexyl]-3-(2-methyl-4-pyridinyl)-1H-indazole-5-carboxamide]	497 nM
Cc1cc(-c2n[nH]c3ccc(C(=O)NN4CCCC(CO)(Oc5cc(F)ccc5F)C4)cc23)ccn1 (centres unmarked) [compound 147, N-[3-(2,5-difluorophenoxy)-3-(hydroxymethyl)-1-piperidinyl]-3-(2-methyl-4-pyridinyl)-1H-indazole-5-carboxamide]	388 nM
Cc1cc(-c2n[nH]c3ccc(C(=O)N[C@@H]4CCC[C@](O)(Cn5ncc6ccncc65)C4)cc23)ccn1 (relative stereo) [compound 74, N-[trans-3-hydroxy-3-(1H-pyrazolo[3,4-c]pyridin-1-ylmethyl)cyclohexyl]-3-(2-methyl-4-pyridinyl)-1H-indazole-5-carboxamide]	792 nM
Cc1cc(-c2n[nH]c3ccc(C(=O)NC4CCCC(Cn5cc6cccnc6n5)C4)cc23)ccn1 (centres unmarked) [compound 113, 3-(2-methyl-4-pyridinyl)-N-[3-(2H-pyrazolo[3,4-b]pyridin-2-ylmethyl)cyclohexyl]-1H-indazole-5-carboxamide]	164 nM
Cc1cc(-c2n[nH]c3ccc(C(=O)NC4CCCC(O)(Cc5ccccc5F)C4)cc23)ccn1 (single isomer, unassigned) [compound 1, N-[3-[(2-fluorophenyl)methyl]-3-hydroxycyclo-hexyl]-3-(2-methyl-4-pyridinyl)-1H-indazole-5-carboxamide]	589 nM
Cc1cc(-c2n[nH]c3ccc(C(=O)NC4CCCC(CO)(Cc5ccc(F)cc5F)C4)cc23)ccn1 (centres unmarked) [compound 134, N-[3-[(2,4-difluorophenyl)methyl]-3-(hydroxymethyl)cyclohexyl]-3-(2-methyl-4-pyridinyl)-1H-indazole-5-carboxamide]	436 nM
Cc1cc(-c2n[nH]c3ccc(C(=O)NC4CCCC(Oc5ccccc5Cl)C4)cc23)ccn1 (single isomer, unassigned) [compound 29, N-[3-(2-chlorophenoxy)cyclohexyl]-3-(2-methyl-4-pyridinyl)-1H-indazole-5-carboxamide]	1000 nM
CC(C)Oc1cc(-c2n[nH]c3ccc(C(=O)NN4CCCC4CCc4ccccc4)cc23)ccn1 (centres unmarked) [compound 146, 3-[2-(1-methylethoxy)-4-pyridinyl]-N-[2-(2-phenylethyl)-1-pyrrolidinyl]-1H-indazole-5-carboxamide]	1000 nM
Cc1cc(-c2n[nH]c3ccc(C(=O)NC4CCCC(Cc5ccccc5F)(NC=O)C4)cc23)ccn1 (centres unmarked) [compound 153, N-[3-[(2-fluorophenyl)methyl]-3-(formylamino)cyclohexyl]-3-(2-methyl-4-pyridinyl)-1H-indazole-5-carboxamide]	162 nM
O=C(N[C@@H]1CCC[C@@](O)(Cn2ncc3ncccc32)C1)c1ccc2[nH]nc(-c3ccc4nccn4c3)c2c1 [compound 86, N-[cis-3-hydroxy-3-(1H-pyrazolo[4,3-b]pyridN-1-ylmethyl)cyclohexyl]-3-imidazo[1,2-a]pyridiN-6-yl-1H-indazole-5-carboxamide]	1000 nM
Cc1cc(-c2n[nH]c3ccc(C(=O)NC4CCCC(CO)(Oc5cccc(F)c5)C4)cc23)ccn1 (single isomer, unassigned) [compound 44, N-[3-(3-fluorophenoxy)-3-(hydroxymethyl)cyclohexyl]-3-(2-methyl-4-pyridinyl)-1H-indazole-5-carboxamide]	214 nM
Cc1cc(-c2n[nH]c3ccc(C(=O)NC4CCCC(Oc5c(C)cccc5C)C4)cc23)ccn1 (centres unmarked) [compound 31, N-[3-(2,6-dimethylphenoxy)cyclohexyl]-3-(2-methyl-4-pyridinyl)-1H-indazole-5-carboxamide]	469 nM
Cc1cc(-c2n[nH]c3ccc(C(=O)N[C@H]4CCC[C@@](O)(Cn5ncc6ccc(F)cc65)C4)cc23)ccn1 (relative stereo) [compound 100, N-[trans-3-[(6-fluoro-1H-indazol-1-yl)methyl]-3-hydroxycyclohexyl]-3-(2-methyl-4-pyridinyl)-1H-indazole-5-carboxamide]	1000 nM
Cc1cc(-c2n[nH]c3ccc(C(=O)N[C@@H]4CCC[C@](O)(Cn5cc6cccnc6n5)C4)cc23)ccn1 (relative stereo) [compound 73, N-[trans-3-hydroxy-3-(2H-pyrazolo[3,4-b]pyridin-2-ylmethyl)cyclohexyl]-3-(2-methyl-4-pyridinyl)-1H-indazole-5-carboxamide]	616 nM
Cc1nc2ccc(-c3n[nH]c4ccc(C(=O)NC5CCCC(Cn6cc(C#N)c7ccccc76)C5)cc34)cc2s1 (centres unmarked) [compound 112, N-[3-[(3-cyano-1H-indol-1-yl)methyl]cyclohexyl]-3-(2-methyl-6-benzothiazolyl)-1H-indazole-5-carboxamide]	1000 nM

Stronger by IC50, values ahead:

IC50	SMILES
128 nM	Cc1cc(-c2n[nH]c3ccc(C(=O)NC4CCCC(O)(Cc5ccccc5F)C4)cc23)ccn1 (single isomer, unassigned) [compound 4, N-[3-[(2-fluorophenyl)methyl]-3-hydroxycyclo-hexyl]-3-(2-methyl-4-pyridinyl)-1H-indazole-5-carboxamide]
99.9 nM	Cc1cc(-c2n[nH]c3ccc(C(=O)N[C@@H]4CCC[C@@](O)(Cn5cncn5)C4)cc23)ccn1 (relative stereo) [compound 64, N-[cis-3-hydroxy-3-(1H-1,2,4-triazol-1-ylmethyl)cyclohexyl]-3-(2-methyl-4-pyridinyl)-1H-indazole-5-carboxamide]
98.9 nM	Cc1cc(-c2n[nH]c3ccc(C(=O)NC4CCCC(CO)(Oc5ccccc5)C4)cc23)ccn1 (centres unmarked) [compound 41, N-[3-(hydroxymethyl)-3-phenoxycyclohexyl]-3-(2-methyl-4-pyridinyl)-1H-indazole-5-carboxamide]
67.4 nM	Cn1cc2cc(-c3n[nH]c4ccc(C(=O)N[C@@H]5CCC[C@](O)(Cn6cccn6)C5)cc34)ccc2n1 (relative stereo) [compound 59, N-[trans-3-hydroxy-3-(1H-pyrazol-1-ylmethyl)cyclohexyl]-3-(2-methyl-2H-indazol-5-yl)-1H-indazole-5-carboxamide]
62 nM	Cn1cc2cc(-c3n[nH]c4ccc(C(=O)N[C@@H]5CCC[C@](O)(Cn6ccnc6)C5)cc34)ccc2n1 (relative stereo) [compound 58, N-[trans-3-hydroxy-3-(1H-imidazol-1-ylmethyl)cyclohexyl]-3-(2-methyl-2H-indazol-5-yl)-1H-indazole-5-carboxamide]
25 nM	Cc1cc(-c2n[nH]c3ccc(C(=O)NC4CCCC(O)(C(O)c5ccccc5)C4)cc23)ccn1 (centres unmarked) [compound 49, N-[3-hydroxy-3-(hydroxyphenylmethyl)cyclohex-yl]-3-(2-methyl-4-pyridinyl)-1H-indazole-5-carboxamide (diasterimer 1)]
21.3 nM	Cc1cc(-c2n[nH]c3ccc(C(=O)N[C@H]4CCC[C@](O)(Cn5ncc6c(F)cccc65)C4)cc23)ccn1 (relative stereo) [compound 103, N-[cis-3-[(4-fluoro-1H-indazol-1-yl)methyl]-3-hydroxycyclohexyl]-3-(2-methyl-4-pyridinyl)-1H-indazole-5-carboxamide]
20.8 nM	Cc1cc(-c2n[nH]c3ccc(C(=O)NC4CCCC(O)(Cc5ccccc5F)C4)cc23)ccn1 (single isomer, unassigned) [compound 2, N-[3-[(2-fluorophenyl)methyl]-3-hydroxycyclo-hexyl]-3-(2-methyl-4-pyridinyl)-1H-indazole-5-carboxamide]
17.4 nM	Cc1cc(-c2n[nH]c3ccc(C(=O)NC4CCCC(CN5C(=O)Cc6ccccc65)C4)cc23)ccn1 (centres unmarked) [compound 120, N-[3-[(2,3-dihydro-2-oxo-1H-indol-1-yl)methyl]cyclohexyl]-3-(2-methyl-4-pyridinyl)-1H-indazole-5-carboxamide]
15.4 nM	Cc1nc2ccc(-c3n[nH]c4ccc(C(=O)N[C@@H]5CCC[C@](O)(Cc6c(F)cccc6F)C5)cc34)cc2s1 [compound 14, N-[3(S)-[(2,6-difluorophenyl)methyl]-3-hydroxy-1(R)-cyclohexyl]-3-(2-methyl-6-benzothiazolyl)-1H-indazole-5-carboxamide]
14.3 nM	Cc1cc(-c2n[nH]c3ccc(C(=O)NC4CCCC(Cn5cc6ccccc6n5)C4)cc23)ccn1 (centres unmarked) [compound 122, N-[3-(2H-indazol-2-ylmethyl)cyclohexyl]-3-(2-methyl-4-pyridinyl)-1H-indazole-5-carboxamide]
8.6 nM	Cc1cc(-c2n[nH]c3ccc(C(=O)N[C@@H]4CCC[C@@](O)(Cn5ncc6cccnc65)C4)cc23)ccn1 (relative stereo) [compound 79, N-[cis-3-hydroxy-3-(1H-pyrazolo[3,4-b]pyridin-1-ylmethyl)cyclohexyl]-3-(2-methyl-4-pyridinyl)-1H-indazole-5-carboxamide]
7.6 nM	Cc1cc(-c2n[nH]c3ccc(C(=O)NC4CCCC(O)(Cc5ccccc5F)C4)cc23)ccn1 (single isomer, unassigned) [compound 3, N-[3-[(2-fluorophenyl)methyl]-3-hydroxycyclo-hexyl]-3-(2-methyl-4-pyridinyl)-1H-indazole-5-carboxamide]
2.2 nM	COc1cccc(F)c1C[C@@]1(O)CCC[C@@H](NC(=O)c2ccc3[nH]nc(-c4ccc5nccn5c4)c3c2)C1 [compound 23, N-[3(S)-[(2-fluoro-6-methoxyphenyl)methyl]-3-hydroxy-1(R)-cyclohexyl]-3-imidazo[1,2-a]pyridin-6-yl-1H-indazole-5-carboxamide]
